Test results taken from ChEMBL document CHEMBL1129046, “Structure-activity relationships of the antimalarial agent artemisinin. 4. Effect of substitution at C-3” (1996).

How the values were obtained:
Plasmodium falciparum [1] = assay: Relative in vitro activity against drug-resistant Plasmodium falciparum D6; assay type: functional
Plasmodium falciparum [2] = assay: Relative in vitro activity against drug-resistant Plasmodium falciparum W-6; assay type: functional

SMILES | Relative activity (Plasmodium falciparum [1]) | Relative activity (Plasmodium falciparum [2])
CCCC[C@H]1C(=O)O[C@@H]2O[C@@]3(CC)CC[C@H]4[C@H](C)CC[C@@H]1[C@@]24OO3 | 184 | 257
CCCC[C@H]1C(=O)O[C@@H]2O[C@@]3(CCc4ccccc4)CC[C@H]4[C@H](C)CC[C@@H]1[C@@]24OO3 | 1 | 1
C[C@@H]1CC[C@H]2[C@@H](C)C(=O)O[C@@H]3O[C@@]4(C)CC[C@@H]1[C@]32OO4 [ARTEMISININ] | 100 | 100
CCC[C@@]12CC[C@H]3[C@H](C)CC[C@H]4CC(=O)O[C@H](O1)[C@]43OO2 | 2102 | 673
CCCC[C@H]1C(=O)O[C@@H]2O[C@@]3(CCCCc4ccccc4)CC[C@H]4[C@H](C)CC[C@@H]1[C@@]24OO3 | 39 | 48
C[C@@H]1CC[C@H]2CC(=O)O[C@@H]3O[C@@]4(CCCCc5ccccc5)CC[C@@H]1[C@@]23OO4 | 220 | 281
CCCC[C@H]1C(=O)O[C@@H]2O[C@@]3(CCCC)CC[C@H]4[C@H](C)CC[C@@H]1[C@@]24OO3 | 28 | 33
CCOC(=O)CC[C@@]12CC[C@H]3[C@H](C)CC[C@H]4CC(=O)O[C@H](O1)[C@]43OO2 | 232 | 232
CC(C)C[C@@]12CC[C@H]3[C@H](C)CC[C@H]4CC(=O)O[C@H](O1)[C@]43OO2 | 53 | 45
C[C@@H]1CC[C@H]2CC(=O)O[C@@H]3O[C@@]4(CCc5ccccc5)CC[C@@H]1[C@@]23OO4 | 3 | 1
CCCC[C@H]1C(=O)O[C@@H]2O[C@@]3(CCC(=O)OCC)CC[C@H]4[C@H](C)CC[C@@H]1[C@@]24OO3 | 1382 | 2285
CC[C@@]12CC[C@H]3[C@H](C)CC[C@H]4CC(=O)O[C@H](O1)[C@]43OO2 | 88 | 112
CCCC[C@@]12CC[C@H]3[C@H](C)CC[C@H]4CC(=O)O[C@H](O1)[C@]43OO2 | 20 | 18
CCCC[C@H]1C(=O)O[C@@H]2O[C@@]3(CCCc4ccc(Cl)cc4)CC[C@H]4[C@H](C)CC[C@@H]1[C@@]24OO3 | 43 | 53
C[C@@H]1CC[C@H]2CC(=O)O[C@@H]3O[C@@]4(CCCc5ccc(Cl)cc5)CC[C@@H]1[C@@]23OO4 | 114 | 127
